Laboratory results as given in patent US20250154154A1 (Relay Binney Street, 2nd Floor, priority 2020, published 2025).

Molecular target: SRC (Homo sapiens, UniProt P12931)
Test: SRC Biochemical Assay Protocol (microfluidic mobility shift assay, FLPeptide4 substrate)
Description: SRC Biochemical Assay Protocol
Src biochemical kinase activity was measured using a surrogate fluorescent peptide substrate [FLPeptide4; 5-FAM-EGIYGVLFKKK-CONH2 (PerkinElmer Cat. No. 760348)] with a microfluidic mobility shift assay. Reactions were performed in 384-well flat bottom polystyrene microplates (Corning Cat. No. 3570) at a final volume of 20 μL in 50 mM HEPES pH 7.4, 1 mM EGTA, 10 mM MgCl2, 0.01% Brij-35, 2 mM DTT, 0.05% BSA, 1% DMSO. Inhibition experiments were performed with compounds of the invention varying from 0.0017-100 μM with 0.26 nM SRC, 1.5 μM FLPeptide4, and 50 μM ATP. Specifically, 15 μl 1.3× mixtures of SRC+FLPeptide4+compounds were preincubated for 30 minutes at room temperature followed by addition of 5 μL 4×ATP. Reactions were carried out for 90 minutes then quenched with 40 μl 500 mM EDTA. Phosphorylated peptide product was measured with a mobility shift assay using a LabChip® EZ Reader system (PerkinElmer Cat. No. 122919). Inhibition ratios were calculated relative to neutral controls and IC50 values were obtained from dose response data fitted to a 4-parameter logistic model.

Row | Molecule | IC50
1 | C=CC(=O)N1CCC(O)(C#Cc2c(-c3ccc(Oc4ccccc4)c(F)c3)c3c(N)ncnc3n2C)CC1 [III-62] | 10 to 1000 nM
2 | CC(C)n1c(C#Cc2cnn(C)c2)c(-c2ccc(Oc3ccccc3)cc2)c2c(N)ncnc21 [III-7] | 10 to 1000 nM
3 | C=CC(=O)N1CCC(O)(C#Cc2c(-c3ccc(Oc4ccccc4)c(C#N)c3)c3c(N)ncnc3n2C)CC1 [III-54] | 1000 to 10000 nM
4 | C=CC(=O)N1CCC(C#Cc2c(-c3ccc(Nc4cccc(C)n4)cc3)c3c(N)ncnc3n2C(C)C)CC1 [Example I-22] | 10 to 1000 nM
5 | CN(C)C/C=C/C(=O)N1CC2(C1)CC(O)(C#Cc1c(-c3ccc(Oc4ccccc4)cc3)c3c(N)ncnc3n1C)C2 [III-26] | 10 to 1000 nM
6 | C=CC(=O)N1CCC(C#Cc2c(-c3ccc(Oc4cccnc4)cc3)c3c(N)ncnc3n2C(C)C)CC1 [Example I-11] | 10 to 1000 nM
7 | N-[(1r,4r)-4-[2-[4- amino-7-(2- hydroxyethyl)-5- [3-methoxy-4-[(6- methylpyridin-2- yl)oxy]phenyl]- 7H-pyrrolo[2,3- d]pyrimidin-6- yllethynyl] cyclohexyl] prop-2- enamide [II-311] | ≤ 10 nM
8 | C=CC(=O)NCC#Cc1c(-c2ccc(Oc3ncccn3)cc2)c2c(N)ncnc2n1C [III-95] | 1000 to 10000 nM
9 | CN(C)C/C=C/C(=O)N1CCC(C#Cc2c(-c3ccc(Oc4ccccc4)cc3)c3c(N)ncnc3n2C2CCOC2)CC1 (centres unmarked) [III-10] | 10 to 1000 nM
10 | C=CC(=O)N1CCC(C#Cc2c(-c3ccc(Oc4ccccc4)cc3)c3c(N)ncnc3n2[C@@H](C)CO)CC1 (single isomer, unassigned) [Example I-26] | 10 to 1000 nM
11 | C=CC(=O)N1CCC(N2CC(F)(C#Cc3c(-c4ccc(Oc5cccc(C)n5)c(OC)c4)c4c(N)ncnc4n3C)C2)C[C@H]1COC (some centres unmarked) [III-92] | 10 to 1000 nM
12 | CC(C)n1c(C#CC2CCC(NC(=O)CCl)CC2)c(-c2ccc(Oc3ccccc3)cc2)c2c(N)ncnc21 (centres unmarked) [Example I-38] | 10 to 1000 nM
13 | C=CC(=O)N1CCC(N2CC(C#Cc3c(-c4ccc(Oc5ccccc5)cc4)c4c(N)ncnc4n3C)C2)C[C@H]1C (some centres unmarked) [III-46] | 10 to 1000 nM
14 | C=CC(=O)N1CC[C@H](N2CC(C#Cc3c(-c4ccc(Oc5ccccc5)cc4)c4c(N)ncnc4n3C)C2)[C@H](C)C1 [III-65] | 10 to 1000 nM
15 | CC(C(N)=O)N1CCC(C#Cc2c(-c3ccc(Oc4ccccc4)cc3)c3c(N)ncnc3n2C(C)C)CC1 (centres unmarked) [II-150, 2-(4-((4-amino-7-isopropyl-5-(4-phenoxyphenyl)-7H-pyrrolo[2,3-d]pyrimidin-6-yl)ethynyl)piperidin-1-yl)propanamide] | 10 to 1000 nM
16 | C=CC(=O)N1CCC(N2CC(C#Cc3c(-c4ccc(Oc5ccccc5)c(C)c4)c4c(N)ncnc4n3C)C2)CC1 [III-83] | 10 to 1000 nM
17 | CN(C)C/C=C/C(=O)Nc1ncnc2c1c(-c1ccc(Oc3ccccc3)cc1)c(C#CC1CNC1)n2C1CCOC1 (centres unmarked) [III-9] | 10 to 1000 nM
18 | CN(C)C/C=C/C(=O)N1CCC(C#Cc2c(-c3ccc(Oc4ccccc4)cc3)c3c(N)ncnc3n2C)CC1 [III-14] | 10 to 1000 nM
19 | CC(C)n1c(C#CC2CNC2)c(-c2ccc(Oc3ccccc3)cc2)c2c(N)ncnc21 [II-152, 6-(azetidin-3-ylethynyl)-7-isopropyl-5-(4-phenoxyphenyl)-7H-pyrrolo[2,3-d]pyrimidin-4-amine] | ≤ 10 nM

Row | Molecule | IC50
20 | C=CC(=O)N[C@@H](C)C(=O)N1CCC(C#Cc2c(-c3ccc(Oc4ccccc4)cc3)c3c(N)ncnc3n2C)CC1 [III-45] | ≤ 10 nM
21 | C=CC(=O)N1CCC(C#Cc2c(-c3ccc(Oc4ccccc4C#N)cc3)c3c(N)ncnc3n2C(C)C)CC1 [Example I-31] | 10 to 1000 nM
22 | C=CC(=O)N1CCC(N2CC(C#Cc3c(-c4ccc(Oc5ccccc5)cc4F)c4c(N)ncnc4n3C)C2)CC1 [III-82] | 10 to 1000 nM
23 | CC(C)n1c(C#CC2CCN(C)CC2)c(-c2ccc(Oc3ccccc3)cc2)c2c(N)ncnc21 [II-141, 7-isopropyl-6-((1-methylpiperidin-4-yl)ethynyl)-5-(4-phenoxyphenyl)-7H-pyrrolo[2,3-d]pyrimidin-4-amine] | ≤ 10 nM
24 | C=CC(=O)N(C)CC(=O)N1CCC(C#Cc2c(-c3ccc(Oc4ccccc4)cc3)c3c(N)ncnc3n2C)CC1 [III-43] | 10 to 1000 nM
25 | CCC(=O)N1CCC(C#Cc2c(-c3ccc(Oc4ccccc4)cc3)c3c(N)ncnc3n2C2CCOC2)CC1 (centres unmarked) [II-156, 1-(4-((4-amino-5-(4-phenoxyphenyl)-7-(tetrahydrofuran-3-yl)-7H-pyrrolo[2,3-d]pyrimidin-6-yl)ethynyl)piperidin-1-yl)propan-1-one] | 10 to 1000 nM
26 | C=CS(=O)(=O)N1CCC(C#Cc2c(-c3ccc(Oc4ccccc4)cc3)c3c(N)ncnc3n2C(C)C)CC1 [Example I-37] | ≤ 10 nM
27 | CC(C)n1c(C#CC2CCN(C(=O)/C=C/CN(C)C)C2)c(-c2ccc(Oc3ccccc3)cc2)c2c(N)ncnc21 (centres unmarked) [III-12] | ≤ 10 nM
28 | C=CC(=O)N1CCC(C#Cc2c(-c3ccc(Oc4ccccc4)cc3)c3c(N)ncnc3n2CCCCN(C)C)C1 (centres unmarked) [III-20] | 10 to 1000 nM
29 | C=CC(=O)N1CCC(N2CC(C#Cc3c(-c4ccc(Oc5ccccc5)cc4)c4c(N)ncnc4n3[C@H]3CCOC3)C2)CC1 [III-63] | ≤ 10 nM
30 | CC(C)n1c(C#CC2CCOCC2)c(-c2ccc(Oc3ccccc3)cc2)c2c(N)ncnc21 [III-8] | 10 to 1000 nM
31 | CC(C)n1c(C#CC2CCN(C3CNC3)CC2)c(-c2ccc(Oc3ccccc3)cc2)c2c(N)ncnc21 [II-153, 6-((1-(azetidin-3-yl)piperidin-4-yl)ethynyl)-7-isopropyl-5-(4-phenoxyphenyl)-7H-pyrrolo[2,3-d]pyrimidin-4-amine] | ≤ 10 nM
32 | C=CC(=O)N1CCC(N2CC(C#Cc3c(-c4ccc(Oc5ccccc5)cc4)c4c(N)ncnc4n3C)C2)C[C@H]1CO (some centres unmarked) [III-64] | 10 to 1000 nM
33 | C=CC(=O)N1CCC(C#Cc2c(-c3ccc(Oc4cccc(Cl)c4)cc3)c3c(N)ncnc3n2C(C)C)CC1 [Example I-36] | 10 to 1000 nM
34 | C#Cc1c(-c2ccc(Oc3ccccc3)cc2)c2c(N)ncnc2n1C(C)C [III-6] | 10 to 1000 nM
35 | C=CC(=O)N1CC[C@H](C#Cc2c(-c3ccc(Oc4ccccc4)cc3)c3c(N)ncnc3n2C)C[C@@H]1C [III-77] | 10 to 1000 nM
36 | Cn1c(C#CC2CC3(C2)CN(C(=O)/C=C/CN2CCOCC2)C3)c(-c2ccc(Oc3ccccc3)cc2)c2c(N)ncnc21 [III-71] | 10 to 1000 nM
37 | C=CC(=O)N1CCC(N2CC(C#Cc3c(-c4ccc(Oc5ccccc5)c(C#N)c4)c4c(N)ncnc4n3C)C2)CC1 [III-74] | > 10000 nM
38 | C=CC(=O)N1CCC(C#Cc2c(-c3cnc(Oc4ccccc4)nc3)c3c(N)ncnc3n2C(C)C)CC1 [Example I-13] | 1000 to 10000 nM

Row | Molecule | IC50
39 | CC(C)n1c(C#CC2(O)CCN(C(=O)/C=C/CN(C)C)CC2)c(-c2ccc(Oc3ccccc3)cc2)c2c(N)ncnc21 [III-24] | ≤ 10 nM
40 | C=CC(=O)N1CCC(C#Cc2c(-c3ccc(Oc4ccccc4)cc3)c3c(N)ncnc3n2[C@H](C)CO)CC1 (single isomer, unassigned) [Example I-24] | 10 to 1000 nM
41 | CC(Cl)C(=O)N1CCC(C#Cc2c(-c3ccc(Oc4ccccc4)cc3)c3c(N)ncnc3n2C(C)C)CC1 (centres unmarked) [Example I-39] | 10 to 1000 nM
42 | CN(C)C/C=C/C(=O)N1CC(C#Cc2c(-c3ccc(Oc4ccccc4)cc3)c3c(N)ncnc3n2C)C1 [III-84] | 10 to 1000 nM
43 | C=CC(=O)N[C@H]1CC[C@H](C#Cc2c(-c3ccc(Oc4ccccc4)cc3)c3c(N)ncnc3n2C)CC1 [III-58] | 10 to 1000 nM
44 | C=CC(=O)N1CC[C@H](N2CC(C#Cc3c(-c4ccc(Oc5ccccc5)cc4)c4c(N)ncnc4n3C)C2)[C@@H](C)C1 [III-69] | 10 to 1000 nM
45 | C=CC(=O)N1CCC(N2CC(C#Cc3c(-c4ccc(Oc5ccccc5)cc4)c4c(N)ncnc4n3C)C2)C(C)C1 (centres unmarked) [III-49] | 10 to 1000 nM
46 | CC(CO)n1c(C#CC2(O)CCN(C(=O)/C=C/CN(C)C)CC2)c(-c2ccc(Oc3ccccc3)cc2)c2c(N)ncnc21 (centres unmarked) [III-27] | 10 to 1000 nM
47 | C=C(C)C(=O)N1CCC(N2CC(C#Cc3c(-c4ccc(Oc5ccccc5)cc4)c4c(N)ncnc4n3C)C2)CC1 [III-38] | 10 to 1000 nM
48 | C=CC(=O)N1CCC(N2CC(C#Cc3c(-c4ccc(Oc5ccccc5)cc4)c4c(N)ncnc4n3[C@H]3C[C@H](O)C3)C2)CC1 [III-68] | 10 to 1000 nM
49 | CC(C)n1c(C#CC2CCNC2)c(-c2ccc(Oc3ccccc3)cc2)c2c(N)ncnc21 (centres unmarked) [II-157, 7-isopropyl-5-(4-phenoxyphenyl)-6-(pyrrolidin-3-ylethynyl)-7H-pyrrolo[2,3-d]pyrimidin-4-amine] | ≤ 10 nM
50 | C=CC(=O)N1CC(N2CCC(C#Cc3c(-c4ccc(Nc5ccccn5)cc4)c4c(N)ncnc4n3C(C)C)CC2)C1 [Example I-46] | 10 to 1000 nM
51 | Cn1c(C#CC2CN(C(=O)/C=C/CN3CC(O)C3)C2)c(-c2ccc(Oc3ccccc3)cc2)c2c(N)ncnc21 [III-78] | 10 to 1000 nM
52 | Nc1ncnc2c1c(-c1ccc(Oc3ccccc3)cc1)c(C#CC1CCNCC1)n2C1CCOC1 (centres unmarked) [II-155, 5-(4-phenoxyphenyl)-6-(piperidin-4-ylethynyl)-7-(tetrahydrofuran-3-yl)-7H-pyrrolo[2,3-d]pyrimidin-4-amine] | ≤ 10 nM
53 | C=CC(=O)N1CCC(C#Cc2c(-c3ccc(C(C#N)c4ccccc4)cc3)c3c(N)ncnc3n2C(C)C)CC1 (centres unmarked) [Example I-30] | 10 to 1000 nM
54 | C=CC(=O)N1CCC(N2CC(C#Cc3c(-c4ccc(Oc5ccccc5)cc4)c4c(N)ncnc4n3C)C2)C[C@@H]1CO (some centres unmarked) [III-67] | 10 to 1000 nM
55 | C=CC(=O)N1CCC(C#Cc2c(-c3ccc(Oc4ccccc4)cc3)c3c(N)ncnc3n2C(C)C(=O)O)CC1 (centres unmarked) [Example I-34] | 1000 to 10000 nM
56 | C=CC(=O)N1CCC(C#Cc2c(-c3ccc(OCC4CCCC4)cc3)c3c(N)ncnc3n2C(C)C)CC1 [Example I-16] | 10 to 1000 nM
